Several values for one entry are separate records, joined by “and”; a condition that tells them apart may be missing. Equal values may be shown once.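 Cultured in 96-well plates, cells were exposed to test compound for 48 hours across five concentrations. GI50: concentration for 50% inhibition of growth. TGI: concentration producing complete growth inhibition.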
Assays:
Experiment in all cases: DTP human tumour cell line panel, 48 h
[1] = tested on: CCRF-CEM leukemia
[2] = tested on: HCC-2998 colon
[3] = tested on: HCT-116 colon
[4] = tested on: HCT-15 colon
[5] = tested on: HL-60(TB) leukemia
[6] = tested on: MALME-3M melanoma
[7] = tested on: OVCAR-5 ovarian
[8] = tested on: RPMI-8226 leukemia
[9] = tested on: SN12C renal
[10] = tested on: SR leukemia

Compound	GI50 [1]	GI50 [2]	GI50 [3]	GI50 [4]	GI50 [5]	TGI [5]	GI50 [6]	TGI [6]	GI50 [7]	TGI [8] [µM]	GI50 [9]	TGI [10]	TGI [1]	TGI [2]	TGI [3]	TGI [4]	TGI [7] [µM]	TGI [9]	GI50 [8]	GI50 [10]
CC(C)C[C@H](NC(=O)[C@@H](N)Cc1cccc2ccccc12)B(O)O	0.0724 µM and < 0.01 µM	0.021 µM	0.138 µM	0.35 µM	0.0789 µM and 0.0291 µM	50 µM and > 100 µM	0.156 µM	0.426 µM and 0.0707 µM	0.174 µM	< 0.0272	1.39 µM	0.0653 µM	–	–	–	–	–	–	–	–
CC(C)OC(=O)NNc1c(Cl)cc(Cl)cc1Cl	–	–	–	–	–	> 100 µM	–	74.2 µM	–	> 100	–	> 100 µM	> 100 µM	> 100 µM	> 100 µM	> 100 µM	> 100	> 100 µM	–	–
CC(C)CC1CC2C(=O)N(c3ccccc3)C(=O)C2c2[nH]c3ccccc3c21 (stereo unspecified)	–	–	–	–	–	> 31.6 µM	–	37 µM	–	> 100	–	76.4 µM	> 56.6 µM	> 31.6 µM	34 µM	> 31.6 µM	> 100	> 43.8 µM	–	–
C(#Cc1ccccc1C#Cc1cnccn1)c1cnccn1	32.3 µM	32.2 µM	27.8 µM	17.5 µM	9.32 µM	22.5 µM	29.8 µM	80.4 µM	> 61.7 µM	> 63.4	24.1 µM	> 100 µM	> 100 µM	> 100 µM	> 100 µM	56 µM	> 100	> 87.1 µM	21.2 µM	6.81 µM
CCCCCCCCCCCCNC(=S)OCCCC	–	–	–	–	–	40.4 µM	–	> 100 µM	–	51	–	> 100 µM	> 100 µM	> 100 µM	> 100 µM	> 100 µM	> 100	> 100 µM	–	–
CC1Nc2ccccc2NC1C=C(C#N)C#N (stereo unspecified)	–	–	–	–	–	4.69 µM	–	32.3 µM	–	29.2	–	22.4 µM	7.97 µM	32.8 µM	26.8 µM	37.3 µM	33.4	30.1 µM	–	–
CN1C=C(C(N)=O)Cc2ccsc21	–	–	–	–	–	> 100 µM	–	> 100 µM	–	> 100	–	> 100 µM	> 100 µM	> 100 µM	> 100 µM	> 100 µM	> 100	> 100 µM	–	–
CCOC(=O)c1ccc(N[C@@H]2c3cc4c(cc3C(c3cc(OC)c(O)c(OC)c3)[C@H]3C(=O)OCC32)OCO4)cc1 (stereo partly specified)	0.116 µM	0.868 µM	0.835 µM	–	0.0114 µM	0.282 µM and 0.889 µM	0.343 µM	2.95 µM	0.646 µM	7.08	0.249 µM	0.32 µM and 0.742 µM	0.925 µM and 1.81 µM	3.69 µM	10.5 µM	6.17 µM	6.16	0.955 µM and 3.91 µM	–	0.0303 µM
CCCCCCCCCCCCNCCCc1ccccc1	2.15 µM	1.75 µM	1.78 µM	1.71 µM	1.89 µM	3.73 µM	1.97 µM	3.64 µM	1.68 µM	4.41	1.63 µM	3.56 µM	5.32 µM	3.23 µM	3.17 µM	3.33 µM	3.48	3.27 µM	2.09 µM	1.2 µM
O=c1oc2cc(O)ccc2cc1-c1nc2ccccc2o1	–	–	–	–	–	70.6 µM	–	> 100 µM	–	75.8	–	> 100 µM	> 100 µM	> 100 µM	> 100 µM	> 100 µM	> 100	> 100 µM	–	–
NNC(=S)N/N=C(\c1nc2ccc(Cl)cc2[nH]c1=O)C(O)c1cccc([N+](=O)[O-])c1 (stereo unspecified)	–	–	–	–	–	> 94.3 µM	–	> 100 µM	–	> 63.7	–	33.8 µM	> 100 µM	> 100 µM	> 31.6 µM	> 100 µM	> 100	> 100 µM	–	–
O=C(Nc1cccc2[nH]c(C(F)(F)F)nc12)c1ccc(Br)cc1F	3.23 µM	4.8 µM	3.16 µM	3.33 µM	3.05 µM	16 µM	2.86 µM	6.82 µM	5.19 µM	7.9	3.1 µM	16.1 µM	20.1 µM	16 µM	11.4 µM	14.1 µM	23.5	10.8 µM	2.44 µM	3.51 µM
CC(=O)OC1C(C)OC(Oc2c(-c3ccc(O)cc3)oc3cc(O)cc(O)c3c2=O)C(O)C1OC(C)=O (stereo unspecified)	30.2 µM	21.9 µM	35.1 µM	52.3 µM	23.9 µM	61.3 µM	21.3 µM	> 75.2 µM	> 100 µM	70.4	27.3 µM	65 µM	> 100 µM	55.2 µM	> 100 µM	> 100 µM	> 100	97.5 µM	23.4 µM	25 µM
Nc1ncnc2occ(-c3ccc(NC(=O)Nc4cccc(C(F)(F)F)c4)cc3)c12	3.51 µM	6.11 µM	2.98 µM	4.24 µM	5.1 µM	14.2 µM	5.74 µM	13.3 µM	5.5 µM	15.3	2.01 µM	8.59 µM	20.1 µM	14.3 µM	16 µM	18.2 µM	13.3	18 µM	4.86 µM	0.957 µM
Cc1ccccc1-c1cc(=O)c2cc(C)c(C)c(C(=O)O)c2o1	–	–	–	–	–	> 100 µM	–	> 100 µM	–	> 100	–	> 100 µM	> 100 µM	> 100 µM	> 100 µM	> 100 µM	> 100	> 100 µM	–	–
O=C(Nc1ccc(Br)cc1)c1cc(Br)ccc1O	0.862 µM and 0.752 µM	2.36 µM and 3.46 µM	0.354 µM and 1.45 µM	0.483 µM and 0.779 µM	0.408 µM and 1.12 µM	4.54 µM and 3.8 µM	0.284 µM and 0.48 µM	1.57 µM and 4.2 µM	1.75 µM and 4.79 µM	0.758	0.252 µM and 1.42 µM	3.23 µM	–	7.67 µM and 35.7 µM	1.56 µM and 3.56 µM	4.01 µM and 7.35 µM	> 92.4	5.14 µM and 8.36 µM	0.483 µM and 0.244 µM	0.291 µM and 0.554 µM
Nc1ncnc2c1ncn2C1OC(F)(COS(N)(=O)=O)C(O)C1O (stereo unspecified)	> 100 µM	> 100 µM	> 100 µM	> 100 µM	> 100 µM	> 100 µM	> 100 µM	> 100 µM	> 100 µM	> 100	> 100 µM	> 100 µM	> 100 µM	> 100 µM	> 100 µM	> 100 µM	> 100	> 100 µM	> 100 µM	> 100 µM
COc1cccc2c1C(=O)c1c(O)c3c(c(O)c1C2=O)C[C@@](O)(C(=O)CO)C[C@@H]3OC1CC2C(OCN2CN2COC3C(C)OC(O[C@H]4C[C@](O)(C(=O)CO)Cc5c(O)c6c(c(O)c54)C(=O)c4c(OC)cccc4C6=O)CC32)C(C)O1 (stereo partly specified)	0.000537 µM	0.0138 µM	0.00564 µM	0.0278 µM	0.000329 µM	–	0.0149 µM	0.0399 µM	0.0304 µM	0.0108	0.00924 µM	0.00476 µM	0.0221 µM	0.0441 µM	> 0.39 µM	> 1 µM	> 0.264	0.101 µM	0.0017 µM	0.000289 µM
CC12CC(Br)(Br)C(=O)C3C1CCCC32	–	–	–	–	–	9.33 µM	–	9.5 µM	–	9.74	–	13.6 µM	9.43 µM	13.8 µM	5.12 µM	15.7 µM	32.1	11.4 µM	–	–
CCOC(=O)N1C/C(=C\c2ccc(N(C)C)cc2)C(=O)/C(=C/c2ccc(N(C)C)cc2)C1	–	–	–	–	–	> 100 µM	–	> 100 µM	–	> 100	–	> 100 µM	> 100 µM	> 100 µM	> 100 µM	> 100 µM	> 100	> 100 µM	–	–
O=C(/C=C/c1cccc(Cl)c1)c1ccccc1	3.49 µM	13 µM	1.44 µM	4.22 µM	2.96 µM	6.58 µM	14.4 µM	33.7 µM	11.2 µM	9.04	14.6 µM	31.5 µM	23.2 µM	26.7 µM	2.97 µM	22.7 µM	24.5	28.3 µM	3.09 µM	2.6 µM
CCc1n(Cc2ccc3ccccc3c2)cc[n+]1Cc1ccc2ccccc2c1	0.922 µM	0.518 µM	0.865 µM	3.94 µM	0.249 µM	1.17 µM	0.247 µM	1.3 µM	1.2 µM	1.8	0.572 µM	4.28 µM	4.34 µM	1.85 µM	2.16 µM	15.3 µM	2.75	2.12 µM	0.376 µM	0.528 µM
N#C/C(=C\c1ccccn1)c1nc2ccccc2o1	1.4 µM	25.1 µM	18.9 µM	20.7 µM	15.3 µM	76.2 µM	25.2 µM	> 100 µM	31.9 µM	52.4	32.5 µM	78.4 µM	69.6 µM	50.2 µM	40.3 µM	55.8 µM	> 100	> 100 µM	18.5 µM	20 µM
CC1=C(C(=O)Nc2cc(F)c(F)cc2F)C(c2ccc(N(C)C)cc2)C(C(=O)Nc2cc(F)c(F)cc2F)=C(C)N1	–	–	30.4 µM	28.6 µM	–	> 61.2 µM	–	> 100 µM	–	> 68.6	–	> 100 µM	> 85.9 µM	> 83 µM	> 100 µM	> 100 µM	> 100	> 100 µM	–	18.7 µM
O=C1C2C3C=CC(C2C(=O)N1CN1CCOCC1)C1C2C(=O)N(CN4CCOCC4)C(=O)C2C31 (stereo unspecified)	–	–	–	–	–	> 59.5 µM	–	> 100 µM	–	> 71.9	–	> 100 µM	57.9 µM	> 61.2 µM	> 62.8 µM	> 60.1 µM	> 92.7	> 64.4 µM	–	–
Cc1ccc(S(=O)(=O)NC(=O)Nc2ncn[nH]2)cc1	–	–	–	–	–	> 100 µM	–	> 100 µM	–	> 100	–	> 100 µM	> 100 µM	> 100 µM	> 100 µM	> 100 µM	> 100	> 100 µM	–	–
O=[N+]([O-])c1cc2c(ccc3ccccc32)o1	0.47 µM	0.252 µM	0.215 µM	0.345 µM	0.331 µM	4.52 µM	0.175 µM	0.368 µM	1.53 µM	6.81	0.568 µM	> 39.9 µM	> 35.6 µM	0.823 µM	0.855 µM	2.35 µM	12.6	22.7 µM	1.13 µM	0.346 µM
O=S(=O)(c1ccccc1)C1(C2(S(=O)(=O)c3ccccc3)CCN=N2)CCN=N1 (stereo unspecified)	–	–	–	–	–	> 100 µM	–	> 100 µM	–	> 100	–	> 100 µM	> 100 µM	> 100 µM	> 100 µM	> 100 µM	> 100	> 100 µM	–	–
COc1cccc(C2=C(c3cn(C)c4c(C)cccc34)C(=O)NC2=O)c1	> 25 µM	> 25 µM	> 18 µM	14.2 µM	> 25 µM	> 25 µM	> 25 µM	> 25 µM	> 25 µM	> 25	> 25 µM	> 25 µM	> 25 µM	> 25 µM	> 25 µM	> 25 µM	> 25	> 25 µM	> 25 µM	> 19.6 µM

From PubChem BioAssay (NCI)
